In PubChem BioAssay (NCI):
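Cells were grown in 96-well plates and exposed to each compound for 48 hours at five concentrations; endpoints were interpolated linearly between bracketing concentrations, or set to the highest concentration if not reached. At the TGI there is no net growth.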

Experiments:
Experiment in all cases: inhibition of tumour cell growth, NCI panel, 48 h
A498 renal = system: A498 renal
OVCAR-4 ovarian = system: OVCAR-4 ovarian
MOLT-4 leukemia = system: MOLT-4 leukemia
HCT-15 colon = system: HCT-15 colon
UO-31 renal = system: UO-31 renal
SF-295 CNS = system: SF-295 CNS
M14 melanoma = system: M14 melanoma
HOP-62 NSCLC = system: HOP-62 NSCLC
MDA-MB-231 breast = system: MDA-MB-231 breast
PC-3 prostate = system: PC-3 prostate

Row | Structure (SMILES) | TGI (A498 renal) | TGI (OVCAR-4 ovarian) | TGI (MOLT-4 leukemia) | TGI (HCT-15 colon) | TGI (UO-31 renal) | TGI (SF-295 CNS) | TGI (M14 melanoma) | TGI (HOP-62 NSCLC) | TGI (MDA-MB-231 breast) | TGI (PC-3 prostate)
1 | Cc1c[n+]2c3ccccc3c3ccccc3c2s1 | > 100 µM | 32.7 µM | 13.4 µM | > 100 µM | 14.5 µM | 33.5 µM | 35.4 µM | 28 µM | – | –
2 | OC1c2ccccc2CCC1CN1CCN(CCOC(c2ccc(F)cc2)c2ccc(F)cc2)CC1 (stereo unspecified) | 26.9 µM | > 100 µM | > 100 µM | 23.4 µM | – | 46.1 µM | 27.6 µM | 60.5 µM | 31.6 µM | > 100 µM
3 | COc1cc(C2c3cc4c(cc3[C@@H](Nc3cccc(CO)c3)C3COC(=O)[C@H]23)OCO4)cc(OC)c1O (stereo partly specified) | 1.77 µM | 30.4 µM | 0.185 µM | 2.86 µM | 10.4 µM | 5.05 µM | – | 0.556 µM | – | –
4 | O=P1(c2ccccc2)c2ccccc2-c2ccccc21 | – | – | > 100 µM | > 100 µM | > 100 µM | > 100 µM | – | > 100 µM | > 100 µM | > 100 µM
5 | C=CC(O)(CBr)CCC(Br)C(=C)C (stereo unspecified) | > 10 µM | > 10 µM | > 10 µM | > 10 µM | – | > 10 µM | > 10 µM | > 10 µM | > 10 µM | > 10 µM
6 | COC(=O)N1CC(=O)C(C(=O)NC23CC4CC(CC(C4)C2)C3)C1 (stereo unspecified) | > 100 µM | > 100 µM | > 100 µM | > 100 µM | > 100 µM | > 100 µM | > 100 µM | – | > 100 µM | > 100 µM
7 | COc1cc(CSc2ccc(O)cc2)cc(OC)c1OC | > 100 µM | – | > 100 µM | > 100 µM | 52 µM | 95 µM | > 100 µM | > 100 µM | > 100 µM | > 100 µM
8 | CC(=O)Nc1ccc2nc(-c3ccccn3)c(-c3ccccn3)nc2c1 | > 100 µM | > 100 µM | > 100 µM | > 100 µM | > 100 µM | > 100 µM | > 100 µM | – | > 100 µM | > 100 µM
9 | NS(=O)(=O)c1nnc(NC(=O)C23CC4CC(CC(C4)C2)C3)s1 | > 100 µM | 3.74 µM | > 100 µM | > 100 µM | > 100 µM | > 100 µM | > 100 µM | > 100 µM | > 100 µM | –
10 | COc1ccc(C2=NN(c3ccccc3)C[N+](c3ccc(C)cc3)=N2)cc1 | > 100 µM | 43.3 µM | 88.5 µM | > 100 µM | > 100 µM | > 100 µM | – | > 100 µM | – | –
11 | COc1ccc(/C=C2/CSCC3=C2NC(=S)NC3c2ccc(OC)c(OC)c2OC)c(OC)c1OC (stereo unspecified) | 39.1 µM | 74.4 µM | > 100 µM | > 100 µM | – | > 100 µM | 32.6 µM | 47.9 µM | 59.4 µM | 46.2 µM
12 | COC1CCON1C(=O)c1ccccc1 (stereo unspecified) | – | > 10 µM | > 10 µM | > 10 µM | > 10 µM | > 10 µM | > 10 µM | > 10 µM | > 10 µM | > 10 µM
13 | S=C(NCCc1ccccn1)N/N=C/c1ccccn1 | 0.571 µM | > 74.7 µM | – | > 100 µM | > 49.1 µM | > 100 µM | 3.39 µM | 0.0696 µM | – | > 100 µM
14 | COc1ccc(/C=C/C(=O)/C=C/c2ccc(OC)cc2OC)c(OC)c1 | – | 46.3 µM | 40 µM | 20 µM | 41.3 µM | 72.5 µM | 36.2 µM | 81.1 µM | 78.5 µM | 44.2 µM
15 | CSCC[C@@H]1C(=O)N(C)[C@H](C(C)(C)C)N1C(=O)c1ccccc1 | > 100 µM | > 100 µM | > 100 µM | > 100 µM | > 100 µM | > 100 µM | – | > 100 µM | – | –
16 | CC(C)C(=O)N1Cc2cc(Cl)cc(Cl)c2OC(=O)c2ccccc21 | 97.9 µM | 74 µM | 62 µM | 85.9 µM | > 100 µM | > 100 µM | 61.7 µM | > 100 µM | – | –
17 | CCOC(=O)CC(c1ccccc1)C(C)(C(=O)OCC)C(=O)OCC (stereo unspecified) | – | > 100 µM | > 100 µM | > 100 µM | > 100 µM | > 100 µM | > 100 µM | > 100 µM | > 100 µM | > 100 µM
18 | O=C(Nc1ccc(Cl)cc1C(F)(F)F)C(=O)C1CCCS1(=O)=O (stereo unspecified) | > 100 µM | > 100 µM | > 100 µM | > 100 µM | – | > 100 µM | > 100 µM | > 100 µM | – | –
19 | N#CC(N=Nc1ccccc1C(=O)O)C(N)=O (stereo unspecified) | – | > 100 µM | > 100 µM | > 100 µM | > 100 µM | > 100 µM | > 100 µM | > 100 µM | > 100 µM | > 100 µM
20 | CC12C3C4C1C1C2C3C41CO (stereo unspecified) | > 100 µM | > 100 µM | > 100 µM | > 100 µM | > 100 µM | > 100 µM | > 100 µM | – | > 100 µM | –
21 | COC(=O)c1cc(C(=O)OC)c(CC(=O)C(=O)NC2C3CC4CC(C3)CC2C4)nc1CC(=O)C(=O)NC1C2CC3CC(C2)CC1C3 (stereo unspecified) | > 100 µM | > 100 µM | > 100 µM | > 100 µM | > 100 µM | > 100 µM | > 100 µM | > 100 µM | – | –
22 | COCCN(CCNC(=O)c1cccc2c(N)c3cccc(C)c3nc12)CCOC | 14.6 µM | 6.38 µM | 2.38 µM | 13 µM | – | > 22.9 µM | 2.7 µM | 11.3 µM | 5.43 µM | 8.9 µM
23 | C1CSCCSCCCSC2CCCCC2SC1 (stereo unspecified) | – | > 100 µM | > 100 µM | > 100 µM | > 100 µM | > 100 µM | > 100 µM | > 100 µM | > 100 µM | > 100 µM
24 | COc1cc(C)c(/C=C2/N=C(c3ccccc3)OC2=O)c([N+](=O)[O-])c1OC | > 100 µM | > 100 µM | > 100 µM | > 100 µM | – | > 100 µM | > 100 µM | > 100 µM | > 100 µM | > 100 µM
